# In ChEMBL document CHEMBL4190187, “Discovery of pyrazolopyrimidine derivatives as novel inhibitors of ataxia telangiectasia and rad3 related protein (ATR)” (Bioorg Med Chem Lett, 2017):
# Experiments:
# [1] = molecular target: Serine/threonine-protein kinase N1 (Homo sapiens) (UniProt Q16512); assay: Inhibition of recombinant human PRK1 (498 to end residues) at 1 uM using KKLNRTLSFAEPG as substrate after 40 mins in presence of [gamma-33P]ATP by scintillation counting method
# [2] = molecular target: G protein-coupled receptor kinase 3 (Homo sapiens) (UniProt P35626); assay: Inhibition of recombinant full-length human GRK3 at 1 uM using casein as substrate after 40 mins in presence of [gamma-33P]ATP by scintillation counting method
# G protein-coupled receptor kinase 3 (Homo sapiens), sequence (P35626 whole entry): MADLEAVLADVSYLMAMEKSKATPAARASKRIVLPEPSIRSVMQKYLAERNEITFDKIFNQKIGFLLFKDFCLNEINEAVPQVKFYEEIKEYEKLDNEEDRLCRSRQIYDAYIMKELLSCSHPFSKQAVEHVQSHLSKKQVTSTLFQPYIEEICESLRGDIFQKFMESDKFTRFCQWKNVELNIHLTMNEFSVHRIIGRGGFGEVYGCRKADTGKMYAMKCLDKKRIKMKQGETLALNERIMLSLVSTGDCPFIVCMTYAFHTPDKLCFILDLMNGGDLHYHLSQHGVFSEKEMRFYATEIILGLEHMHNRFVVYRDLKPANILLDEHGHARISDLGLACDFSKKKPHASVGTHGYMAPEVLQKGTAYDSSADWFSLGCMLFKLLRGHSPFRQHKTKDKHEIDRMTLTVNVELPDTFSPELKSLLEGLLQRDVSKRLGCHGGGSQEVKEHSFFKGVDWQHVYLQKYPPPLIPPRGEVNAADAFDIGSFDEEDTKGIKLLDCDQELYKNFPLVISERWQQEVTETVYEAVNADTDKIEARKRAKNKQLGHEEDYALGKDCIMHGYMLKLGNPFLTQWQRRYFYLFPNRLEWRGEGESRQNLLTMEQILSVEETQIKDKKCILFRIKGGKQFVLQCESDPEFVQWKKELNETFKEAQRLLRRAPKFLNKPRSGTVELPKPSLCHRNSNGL
# [3] = system: Serine/threonine-protein kinase Chk2 (Homo sapiens), O96017 [R145W]; assay: Inhibition of recombinant human CHK2 R145W mutant (5 to end residues) at 1 uM using KKKVSRSGLYRSPSMPENLNRPR as substrate after 40 mins in presence of [gamma-33P]ATP by scintillation counting method
# Serine/threonine-protein kinase Chk2 (Homo sapiens), O96017 [R145W], sequence (O96017 whole entry R145W, the tested form may be a part): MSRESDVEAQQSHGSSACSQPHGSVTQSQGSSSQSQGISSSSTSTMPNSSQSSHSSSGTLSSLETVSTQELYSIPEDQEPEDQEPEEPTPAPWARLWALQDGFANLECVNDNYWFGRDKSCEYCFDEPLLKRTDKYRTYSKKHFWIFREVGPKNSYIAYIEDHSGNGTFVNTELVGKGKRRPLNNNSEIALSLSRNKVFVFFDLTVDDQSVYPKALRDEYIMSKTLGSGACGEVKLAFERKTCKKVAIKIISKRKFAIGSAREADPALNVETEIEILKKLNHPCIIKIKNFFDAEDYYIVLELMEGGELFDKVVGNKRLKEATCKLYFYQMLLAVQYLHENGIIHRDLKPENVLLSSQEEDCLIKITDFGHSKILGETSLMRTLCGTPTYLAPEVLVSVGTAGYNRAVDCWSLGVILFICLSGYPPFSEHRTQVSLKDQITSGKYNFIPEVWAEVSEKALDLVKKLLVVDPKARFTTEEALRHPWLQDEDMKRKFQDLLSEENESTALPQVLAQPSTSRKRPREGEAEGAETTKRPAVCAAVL
# [4] = molecular target: Ephrin type-B receptor 3 (Homo sapiens) (UniProt P54753); assay: Inhibition of recombinant human EPHB3 (599 to 920 residues) at 1 uM using poly(Glu,Tyr) 4:1 as substrate after 40 mins in presence of [gamma-33P]ATP by scintillation counting method
# [5] = molecular target: Protein-tyrosine kinase 6 (Homo sapiens) (UniProt Q13882); assay: Inhibition of recombinant full-length human BRK at 10 uM using poly(Glu,Tyr) 4:1 as substrate after 40 mins in presence of [gamma-33P]ATP by scintillation counting method
# [6] = molecular target: Ephrin type-B receptor 1 (Homo sapiens) (UniProt P54762); assay: Inhibition of recombinant human EPHB1 (564 to end residues) at 1 uM using KVEKIGEGTYGVVYK as substrate after 40 mins in presence of [gamma-33P]ATP by scintillation counting method
# [7] = molecular target: Receptor tyrosine-protein kinase erbB-2 (Homo sapiens) (UniProt P04626); assay: Inhibition of recombinant human ErbB2 (676 to end residues) at 1 uM using poly(Glu,Tyr) 4:1 as substrate after 40 mins in presence of [gamma-33P]ATP by scintillation counting method
# [8] = molecular target: Serine/threonine-protein kinase D2 (Homo sapiens) (UniProt Q9BZL6); assay: Inhibition of recombinant full-length human PKD2 at 1 uM using KKLNRTLSVA as substrate after 40 mins in presence of [gamma-33P]ATP by scintillation counting method
# [9] = system: Hepatocyte growth factor receptor (Homo sapiens), P08581 [D1246N]; assay: Inhibition of recombinant human Met D1246N mutant (974 to end residues) at 1 uM using KKKGQEEEYVFIE as substrate after 40 mins in presence of [gamma-33P]ATP by scintillation counting method
# [10] = molecular target: Serine/threonine-protein kinase PLK2 (Homo sapiens) (UniProt Q9NYY3); assay: Inhibition of recombinant human Snk (65 to 409 residues) at 1 uM using casein as substrate after 40 mins in presence of [gamma-33P]ATP by scintillation counting method
# Serine/threonine-protein kinase PLK2 (Homo sapiens), sequence (Q9NYY3 whole entry, looked up, the tested form may be a part): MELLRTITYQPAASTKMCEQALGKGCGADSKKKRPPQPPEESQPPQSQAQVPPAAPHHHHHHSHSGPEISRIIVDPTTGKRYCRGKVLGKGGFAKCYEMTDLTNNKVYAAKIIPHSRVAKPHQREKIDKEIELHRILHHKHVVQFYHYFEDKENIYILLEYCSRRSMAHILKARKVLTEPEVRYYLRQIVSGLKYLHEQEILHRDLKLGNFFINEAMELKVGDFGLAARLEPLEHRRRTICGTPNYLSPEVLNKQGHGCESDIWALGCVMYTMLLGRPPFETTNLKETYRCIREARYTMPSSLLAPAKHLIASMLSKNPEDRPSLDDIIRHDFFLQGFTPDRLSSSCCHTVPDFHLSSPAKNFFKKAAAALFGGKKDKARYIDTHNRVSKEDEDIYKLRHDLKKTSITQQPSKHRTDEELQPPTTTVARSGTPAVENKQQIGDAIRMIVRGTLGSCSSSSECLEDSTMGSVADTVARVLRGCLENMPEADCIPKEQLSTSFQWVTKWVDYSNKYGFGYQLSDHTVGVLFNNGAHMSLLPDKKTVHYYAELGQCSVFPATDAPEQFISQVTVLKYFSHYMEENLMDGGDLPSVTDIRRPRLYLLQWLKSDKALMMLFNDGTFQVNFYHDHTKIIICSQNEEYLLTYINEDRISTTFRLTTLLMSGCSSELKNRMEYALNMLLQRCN
# [11] = molecular target: Mitogen-activated protein kinase kinase kinase kinase 1 (Homo sapiens) (UniProt Q92918); assay: Inhibition of recombinant human HPK1 (1 to 346 residues) at 1 uM using myelin basic protein as substrate after 40 mins in presence of [gamma-33P]ATP by scintillation counting method
# Mitogen-activated protein kinase kinase kinase kinase 1 (Homo sapiens), sequence (Q92918 whole entry, looked up, the tested form may be a part): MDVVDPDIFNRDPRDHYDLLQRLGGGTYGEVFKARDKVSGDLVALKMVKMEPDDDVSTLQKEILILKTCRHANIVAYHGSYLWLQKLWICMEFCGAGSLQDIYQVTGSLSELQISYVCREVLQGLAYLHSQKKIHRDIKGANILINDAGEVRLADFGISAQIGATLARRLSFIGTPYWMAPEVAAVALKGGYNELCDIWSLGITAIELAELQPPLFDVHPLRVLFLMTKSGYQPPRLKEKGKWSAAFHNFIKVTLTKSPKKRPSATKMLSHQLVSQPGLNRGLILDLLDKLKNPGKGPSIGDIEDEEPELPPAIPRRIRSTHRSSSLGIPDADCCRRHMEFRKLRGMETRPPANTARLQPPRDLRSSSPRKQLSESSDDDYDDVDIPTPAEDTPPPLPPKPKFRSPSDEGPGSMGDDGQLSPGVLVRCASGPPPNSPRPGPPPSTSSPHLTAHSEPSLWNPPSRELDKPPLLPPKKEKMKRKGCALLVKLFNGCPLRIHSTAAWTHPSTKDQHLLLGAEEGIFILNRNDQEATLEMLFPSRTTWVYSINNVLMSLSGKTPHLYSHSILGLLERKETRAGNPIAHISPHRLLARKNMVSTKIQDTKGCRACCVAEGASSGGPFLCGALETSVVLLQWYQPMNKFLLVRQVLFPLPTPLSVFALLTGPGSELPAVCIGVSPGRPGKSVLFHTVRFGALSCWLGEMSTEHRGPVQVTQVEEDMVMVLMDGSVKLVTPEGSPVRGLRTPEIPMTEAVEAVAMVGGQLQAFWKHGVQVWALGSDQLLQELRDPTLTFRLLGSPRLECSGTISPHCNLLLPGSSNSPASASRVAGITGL
# [12] = molecular target: Death-associated protein kinase 1 (Homo sapiens) (UniProt P53355); assay: Inhibition of recombinant human DAPK1 (1 to 296 residues) at 1 uM using KKLNRTLSFAEPG as substrate after 40 mins in presence of [gamma-33P]ATP by scintillation counting method
# Death-associated protein kinase 1 (Homo sapiens), sequence (P53355 whole entry, looked up, the tested form may be a part): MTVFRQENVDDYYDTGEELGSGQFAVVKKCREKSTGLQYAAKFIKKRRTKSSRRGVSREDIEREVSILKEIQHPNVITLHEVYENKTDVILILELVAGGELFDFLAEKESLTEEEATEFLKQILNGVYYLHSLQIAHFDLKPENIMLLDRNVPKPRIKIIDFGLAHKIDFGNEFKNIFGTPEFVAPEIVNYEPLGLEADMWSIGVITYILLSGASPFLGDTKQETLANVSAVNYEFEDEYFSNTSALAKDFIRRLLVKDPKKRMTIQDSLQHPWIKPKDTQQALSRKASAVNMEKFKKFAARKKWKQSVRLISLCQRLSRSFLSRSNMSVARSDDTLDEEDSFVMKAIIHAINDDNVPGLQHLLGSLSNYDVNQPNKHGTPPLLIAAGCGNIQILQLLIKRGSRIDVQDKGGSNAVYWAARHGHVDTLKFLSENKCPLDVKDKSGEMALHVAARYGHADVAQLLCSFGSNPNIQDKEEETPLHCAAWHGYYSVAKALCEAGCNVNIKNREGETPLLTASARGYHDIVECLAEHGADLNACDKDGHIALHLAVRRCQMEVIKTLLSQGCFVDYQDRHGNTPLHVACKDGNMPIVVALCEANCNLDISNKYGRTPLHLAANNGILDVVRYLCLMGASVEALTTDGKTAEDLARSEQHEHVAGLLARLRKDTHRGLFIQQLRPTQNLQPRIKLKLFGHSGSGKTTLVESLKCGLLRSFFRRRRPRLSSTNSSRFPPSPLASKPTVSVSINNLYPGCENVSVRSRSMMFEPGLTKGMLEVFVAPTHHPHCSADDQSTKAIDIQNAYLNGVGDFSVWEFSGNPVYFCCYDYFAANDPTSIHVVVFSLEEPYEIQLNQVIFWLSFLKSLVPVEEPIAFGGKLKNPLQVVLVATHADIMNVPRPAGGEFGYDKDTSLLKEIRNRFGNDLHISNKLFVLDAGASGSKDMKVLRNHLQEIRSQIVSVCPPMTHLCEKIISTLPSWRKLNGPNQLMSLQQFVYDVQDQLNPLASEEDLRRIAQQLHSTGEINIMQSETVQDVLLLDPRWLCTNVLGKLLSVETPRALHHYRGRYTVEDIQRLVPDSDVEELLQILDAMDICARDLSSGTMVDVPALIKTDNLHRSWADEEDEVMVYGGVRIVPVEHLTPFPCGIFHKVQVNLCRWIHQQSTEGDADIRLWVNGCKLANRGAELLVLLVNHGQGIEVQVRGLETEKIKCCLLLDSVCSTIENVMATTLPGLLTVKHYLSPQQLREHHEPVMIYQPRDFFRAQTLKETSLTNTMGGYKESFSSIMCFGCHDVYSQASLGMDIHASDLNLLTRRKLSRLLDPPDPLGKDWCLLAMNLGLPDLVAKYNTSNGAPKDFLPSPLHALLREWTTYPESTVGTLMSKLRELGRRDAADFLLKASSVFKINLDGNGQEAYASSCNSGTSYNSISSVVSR
# [13] = system: Hepatocyte growth factor receptor (Homo sapiens), P08581 [M1268T]; assay: Inhibition of recombinant human Met M1268T mutant (974 to end residues) at 1 uM using KKKGQEEEYVFIE as substrate after 40 mins in presence of [gamma-33P]ATP by scintillation counting method
# [14] = molecular target: Insulin-like growth factor 1 receptor (Homo sapiens) (UniProt P08069); assay: Inhibition of recombinant human IGF-1R (959 to end residues) at 1 uM using KKKSPGEYVNIEFG as substrate after 40 mins in presence of [gamma-33P]ATP by scintillation counting method
# [15] = molecular target: Dual specificity mitogen-activated protein kinase kinase 6 (Homo sapiens) (UniProt P52564); assay: Inhibition of recombinant human MKK6 (4 to end residues) at 1 uM using inactive SAPK2a as substrate after 40 mins in presence of [gamma-33P]ATP by scintillation counting method
# Dual specificity mitogen-activated protein kinase kinase 6 (Homo sapiens), sequence (P52564 whole entry): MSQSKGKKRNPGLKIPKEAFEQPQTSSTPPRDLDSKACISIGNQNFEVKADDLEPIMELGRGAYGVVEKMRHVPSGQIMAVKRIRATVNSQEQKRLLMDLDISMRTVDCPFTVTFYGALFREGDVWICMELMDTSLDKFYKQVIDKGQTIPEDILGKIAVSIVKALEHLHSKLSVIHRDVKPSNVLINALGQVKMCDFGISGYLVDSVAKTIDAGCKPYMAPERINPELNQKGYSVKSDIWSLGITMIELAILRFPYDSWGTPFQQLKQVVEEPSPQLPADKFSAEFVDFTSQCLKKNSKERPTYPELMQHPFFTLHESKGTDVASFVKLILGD
# [16] = molecular target: Calcium/calmodulin-dependent protein kinase kinase 2 (Homo sapiens) (UniProt Q96RR4); assay: Inhibition of recombinant full-length human CAMKK2 at 1 uM using […] after 40 mins in presence of [gamma-33P]ATP by scintillation counting method
# [17] = molecular target: Serine/threonine-protein kinase 3 (Homo sapiens) (UniProt Q13188); assay: Inhibition of recombinant human MST2 (2 to end residues) at 1 uM using myelin basic protein as substrate after 40 mins in presence of [gamma-33P]ATP by scintillation counting method
# [18] = system: RAC-gamma serine/threonine-protein kinase (Homo sapiens), Q9Y243 [S472D]; assay: Inhibition of recombinant human PKBgamma S472D mutant (117 to end residues) at 1 uM using GRPRTSSFAEGKK as substrate after 40 mins in presence of [gamma-33P]ATP by scintillation counting method
# [19] = molecular target: Serine/threonine-protein kinase ULK3 (Homo sapiens) (UniProt Q6PHR2); assay: Inhibition of recombinant full-length human ULK3 at 1 uM using casein as substrate after 40 mins in presence of [gamma-33P]ATP by scintillation counting method
# [20] = molecular target: Phosphatidylinositol 4-phosphate 3-kinase C2 domain-containing subunit alpha (Homo sapiens) (UniProt O00443); assay: Inhibition of recombinant human PI3KC2alpha (299 to end residues) at 1 uM phosphatidylinositol/phosphatidylserine as substrate after 40 mins in presence of [gamma-33P]ATP by scintillation counting method
# [21] = molecular target: Tyrosine-protein kinase HCK (Homo sapiens) (UniProt P08631); assay: Inhibition of recombinant human Hck (230 to 497 residues) at 1 uM using KVEKIGEGTYGVVYK (Cdc2 peptide) as substrate after 40 mins in presence of [gamma-33P]ATP by scintillation counting method
# Tyrosine-protein kinase HCK (Homo sapiens), sequence (P08631 2-526 limits assumed): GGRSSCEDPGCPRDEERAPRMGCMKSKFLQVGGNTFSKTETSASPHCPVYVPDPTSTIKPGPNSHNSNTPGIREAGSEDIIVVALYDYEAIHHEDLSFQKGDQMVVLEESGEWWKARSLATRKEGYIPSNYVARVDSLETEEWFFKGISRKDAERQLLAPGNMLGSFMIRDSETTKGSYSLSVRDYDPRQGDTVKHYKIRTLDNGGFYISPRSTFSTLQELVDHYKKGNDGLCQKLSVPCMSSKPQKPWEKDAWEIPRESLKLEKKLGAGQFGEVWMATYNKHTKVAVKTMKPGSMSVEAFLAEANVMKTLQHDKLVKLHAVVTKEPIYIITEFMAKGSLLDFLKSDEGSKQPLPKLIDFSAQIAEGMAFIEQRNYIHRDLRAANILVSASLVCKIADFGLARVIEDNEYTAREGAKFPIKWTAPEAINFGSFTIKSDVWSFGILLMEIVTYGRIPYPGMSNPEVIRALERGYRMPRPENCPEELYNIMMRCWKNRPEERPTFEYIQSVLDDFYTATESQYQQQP
# [22] = molecular target: Serine/threonine-protein kinase MRCK alpha (Homo sapiens) (UniProt Q5VT25); assay: Inhibition of recombinant human MRCKalpha (1 to 473 residues) at 1 uM using KKRNRTLTV as substrate after 40 mins in presence of [gamma-33P]ATP by scintillation counting method
# [23] = molecular target: Serine/threonine-protein kinase mTOR (Homo sapiens) (UniProt P42345); assay: Inhibition of recombinant full-length human mTOR at 1 uM after 40 mins in presence of [gamma-33P]ATP by scintillation counting method
# [24] = molecular target: cAMP-dependent protein kinase catalytic subunit PRKX (Homo sapiens) (UniProt P51817); assay: Inhibition of recombinant full-length human PRKX at 1 uM using RRRLSFAEPG as substrate after 40 mins in presence of [gamma-33P]ATP by scintillation counting method
smiles,measurement,setting,value
CS(=O)(=O)c1ccc(-n2nc(-c3cnc4[nH]ccc4c3)c3c(N)ncnc32)cc1,inhibition,[1],-1%
same,inhibition,[2],1%
same,inhibition,[3],4%
same,inhibition,[4],-2%
same,inhibition,[5],102%
same,inhibition,[6],22%
same,inhibition,[7],6%
same,inhibition,[8],17%
same,inhibition,[9],3%
same,inhibition,[10],-6%
same,inhibition,[11],2%
same,inhibition,[12],-2%
same,inhibition,[13],-2%
same,inhibition,[14],-2%
same,inhibition,[15],1%
same,inhibition,[16],-4%
same,inhibition,[17],8%
same,inhibition,[18],-7%
same,inhibition,[19],16%
same,inhibition,[20],23%
same,inhibition,[21],50%
same,inhibition,[22],-3%
same,inhibition,[23],65%
same,inhibition,[24],-4%
